According to patent US6403363B1, “Method of preservation of vaccines with polybiguanide” (priority 1997, dated 2002):
Read-outs that look alike come from different tables or passages of the source.

How the values were obtained:
[1] = Visible effect of preservative on allantoic fluid; format: physicochemical; conditions: preservative 0.1%
From the text: The preserved samples were also examined to determine the visible effect on allantoic fluid, and the results are shown in Table 4 below.

seed virus grown in eggs = tested on: seed virus grown in eggs; design: species or system influenza virus

O=[N+]([O-])C(Br)(CO)CO [Nipaguard BNPD]
Effect on allantoic fluid (visible) [1]: No effect

O=[N+]([O-])C(Br)(CO)CO [bronopol, 2-bromo-2-nitropropan-1,2-diol]
Infectivities (summary) (seed virus grown in eggs; 0.1% preservative): Unsatisfactory | effect on egg infectivities (seed virus grown in eggs; compared with Cosmocil CQ and thiomersal, 0.1% bronopol, 0.4% Biopure): pronounced negative effect | Log egg infective doses/ml (seed virus grown in eggs; virus seed + 0.1% preservative): <5.4 log egg infective doses/ml

C[CH2][Hg][S]c1ccccc1C(=O)[O-].[Na+] [thiomersal, sodium ethylmercurithiosalicylate]
Log egg infective doses/ml (seed virus grown in eggs; virus seed + 0.01% preservative): 8.2
